The source of these data is patent publication EP1581790B1, “PEPTIDES THAT HOME TO TUMOR LYMPHATIC VASCULATURE AND METHODS OF USING SAME” (The Burnham Institute, priority 2001, dated 2009).

Where no end group is shown, it is not given here.

Data set [1] has as its system MDA-MB-435 tumor lymphatic vasculature. Briefly: Localization in 435 tumors after intravenous injection, with blood vessel and lymphatic markers.
Data set [2] has as its system primary MDA-MB-435 breast carcinoma tumor cell suspensions. The data set can be described thus: Ex vivo binding of phage to primary 435 tumor cell suspensions. Also noted: species or system Human. The settings on record: addition of synthetic peptide. How it is done: Several ex vivo selections were performed with 435 tumor cell suspensions prepared from MDA-MB-435 breast carcinoma xenografts grown in nude mice, as described below. Anti-mouse CD31 was used to deplete the tumor cell mixture of blood vessel endothelial cells prior to rescuing phage bound to the CD31-negative cell population. By the third ex vivo round, the phage pool bound a tumor cell suspension approximately 350-fold over control, nonrecombinant phage. The ex vivo preselected phage pool then was subjected to an in vivo selection round by injection into the tail vein of a nude mouse bearing an MDA-MB-435 tumor. Phage were then rescued from harvested xenograft tumor tissue.
Xenografts, tumor cell suspensions and ex vivo selections were performed essentially as follows. Nude Balb/c mice were subcutaneously injected with 1 x 10^6 MDA-MB-435 tumor cells to generate breast carcinoma xenografts. Human MDA-MB-435 breast carcinoma xenograft tumors were harvested 9 to 12 weeks after implantation, and tumor cell suspensions prepared using collagenase (0.5 mg/ml, Sigma).
The suspension was subjected to serial washes with 1% BSA in DME to remove unbound phage. […]

Data set [3] relates to MDA-MB-435 human breast carcinoma cell xenografts. The data set can be described thus: Tumor treatment study. The settings on record: 67 nmol intravenously twice a week; after about two weeks of treatment; Figure 8. The format is in vivo, nude mice. How it is done: A tumor treatment study was performed using MDA-MB-435 human breast carcinoma cell xenografts prepared by subcutaneously injecting 1 x 10^6 cells in 200 µl PBS into nude mice. Mice (five per group) were treated intravenously twice a week with 67 nmol CGNKRTRGC peptide (SEQ ID NO: 1) or with PBS starting four weeks after tumor implantation. Tumor volumes were measured once a week for four weeks.

The test system of data set [4] is Cultured MDA-MB-435 cells. Briefly: Cytotoxicity in cell culture, trypan blue staining. The format is cell-based. The method, then: Cultured MDA-MB-435 cells were incubated with a control peptide (CGEKRTRGC; SEQ ID NO: 3) or with CGNKRTRGC (SEQ ID NO: 1) at 37°C for 1, 2 or 4 hours. After staining with trypan blue, which is taken up by cells that are dead or dying, the total number of cells were counted, and the percentage of trypan blue stained cells determined. […] In particular, after four hours incubation, at least 7-fold greater trypan blue uptake was evident in cell cultures incubated with peptide SEQ ID NO: 1 as compared to cultures incubated with control peptide.

For data set [5], the system named is normal tissues. The data set can be described thus: Localization of fluorescein-labeled peptide in normal tissues after intravenous injection. The format is in vivo, mice. How it is done: Several normal tissues also were studied for localization of the CGNKRTRGC (SEQ ID NO: 1) peptide.
Detection of fluorescent peptides and biotin-conjugated tomato lectin was performed as follows. Fluorescein-conjugated peptide CGNKRTRGC (SEQ ID NO: 1) was prepared as described above. The peptide (100 µg in 200 µl of PBS) was injected into the tail vein of mice bearing MDA-MB-435 breast carcinoma tumors. After 10 minutes, biotin-conjugated lycopersicon esculentum (tomato) lectin (100 µg in 200 µl of PBS; Vector; Burlingame, California) was also injected into the tail vein. After 5 minutes, the mouse was perfused through the heart with 4% paraformaldehyde. Tissues were removed and frozen in O.C.T. embedding medium (Tissue-Tek; Torrence, California). Blood vessels were visualized by detecting the tomato lectin with streptavidin-conjugated Alexa 594 (Molecular Probes; Eugene, Oregon). Green staining indicated the presence of peptide SEQ ID NO: 1, while red staining indicated the presence of tomato lectin.

For data set [6] the following is noted: concentration of 10 µM; cited from earlier work.
In data set [7] the test system is cultured MDA-MB-435 tumor cells. The data set can be described thus: Internalization and subcellular localization in cultured MDA-MB-435 cells. The format is cell-based, Human. The settings on record: one to five hours at 37°C; Figure 2. How it is done:
A fluorescein-conjugated CGNKRTRGC (SEQ ID NO: 1) peptide was utilized to further analyze cellular internalization and subcellular localization. […] Natl. Acad. Sci. 97:13003 (2000). The fluorescein-conjugated peptides were incubated with cultured MDA-MB-435 tumor cells for one to five hours at 37°C. […] Cultured 435 cells also internalized the CGNKRTRGC (SEQ ID NO: 1) phage, although the phage accumulated in the cytoplasm of the cells.

The subject of data set [8] is cultured KRIB cells. Briefly: Internalization of fluorescein-labeled peptide by cultured KRIB cells. The format is cell-based, human.

Regarding CGNKRTRGC [CGNKRTRGC (SEQ ID NO: 1)], the “accumulation in single cells within the tumor” value in data set [1] (fluorescein-labeled peptide) was “accumulated in VEGFR-3 positive single cells within the tumor”. In data set [1] (mouse, in vivo), the “co-localization with the macrophage marker F4/80” value is recorded as “lack of co-localization”. Moreover, the “inhibition of binding of phage displaying the same peptide sequence” value in data set [2] is “inhibited binding”. Besides, the “mean tumor volume compared to mice administered PBS alone” value in data set [3] is listed as “at least several fold less”. The “trypan blue uptake relative to cultures incubated with control peptide” value in data set [4] (four hours incubation, 37°C, control peptide SEQ ID NO: 3) is recorded as “at least 7 fold”. In addition, the “cytotoxic effect as compared to control peptide SEQ ID NO: 3” value in data set [4] (later time points (1, 2 or 4 hours), Figure 7) is given as “significantly enhanced cytotoxic effect”. Also, in data set [5], the “fluorescence in normal tissues” value is given as “seen only in the kidney tubuli”.

As to D(KLAKLAK)2, the mitochondrial swelling entry in data set [6] is “marked mitochondrial swelling”.

For “fluorescein-conjugated CGNKRTRGC (SEQ ID NO: 1) peptide: Fluorescein-conjugated CGNKRTRGC (SEQ ID NO: 1) peptide (cysteine pairing not given here; also: fluorescein-conjugated)”, the “uptake and subcellular localization of fluorescein-conjugated peptide” value in data set [7] was “taken up by the 435 cells and translocated into the cell nucleus”. Besides, in data set [8], the “internalization by cultured KRIB cells” value is recorded as “internalized”. Also, in data set [1] (Figure 5), the “internalization and nuclear localization in vivo” value is “internalized and transported into nuclei in vivo”. In addition, the “internalization and nuclear localization in vivo” value in data set [1] (Figure 5, listed as fluorescein-conjugated peptide (SEQ ID NO: 1)) is reported as “accumulated in the nuclei lining the vessel-like structures”. Also, the “co-localization with blood vessels labeled with biotin-conjugated tomato lectin” value in data set [1] (Figures 3A-C) was “notable lack of co-localization”. In data set [1] (intravenously injected, Figure 5), the “co-localization with lymphatic markers VEGFR-3 and LYVE-1” value was “co-localized with VEGFR-3 and LYVE-1 staining in 435 tumor tissue”. In data set [1] (tail vein injection), the “blood vessel markers CD31 and Meca-32 on the vessels in which the substance localized” value is “negative for the CD31 and Meca-32 blood vessel markers”; the “localization within 435 tumor” value was “localized in vessel-like structures and in individual cells within the tumor”.
